13 compounds from US11331369B2, “Endoparasitic depsipeptides” (Zoetis Services LLC, priority 2017, dated 2022) can be followed below.

Common to all, as to type: cell-based
Experiment [1] relates to 4th stage larvae (L4) of Dirofilaria immitis. As to the kind of experiment: Dirofilaria immitis, L4 Stage (DiL4) In Vitro Assay. The following applies: Dirofilaria immitis, 72 h, read-out: DiL4 Minimum Effective Dose (MED), approximately 72 hours incubation; L4 larvae assessed for survival or paralysis.
Experiment [2] concerns third stage larvae of Haemonchus contortus. In words: Haemonchus contortus L3 (HcL3) Assay. The following applies: 96 h, read-out: HcL3 Minimum Effective Dose (MED).
For experiment [3], the system named is microfilariae of Dirofilaria immitis. As to the kind of experiment: Dirofilaria immitis, Microfilaria (DiMF) In vitro Assay. Conditions: 72 h, read-out: DiMF Minimum Effective Dose (MED), approximately 72 hours incubation, microfilariae assessed for survival or paralysis.

A value given as a limit tells only on which side of the number the result lay.

As for `CC(C)C[C@H]1C(=O)O[C@H](Cc2ccc(Cn3ccnc3C(F)(F)F)cc2)C(=O)N(C)[C@@H](CC(C)C)C(=O)O[C@H](C)C(=O)N(C)[C@@H](CC(C)C)C(=O)O[C@H](Cc2ccc(Cn3ccnc3C(F)(F)F)cc2)C(=O)N(C)[C@@H](CC(C)C)C(=O)O[C@H](C)C(=O)N1C` [Example 6-15, (3S,6R,9S,12R,15S,18R,21S,24R)-3,9,15,21-tetraisobutyl-4,6,10,16,18,22-hexamethyl-12,24-bis(4-((2-(trifluoromethyl)-1H-imidazol-1-yl)methyl)benzyl)-1,7,13,19-tetraoxa-4,10,16,22-tetraazacyclotetracosan-2,5,8,11,14,17,20,23-octaone], the minimal effective concentration in experiment [1] fell in the range of 0.0001 to 0.001 µM.
In the case of `CC(C)C[C@H]1C(=O)O[C@H](Cc2ccc(Cn3cc(OCC4CC4)cn3)cc2)C(=O)N(C)[C@@H](CC(C)C)C(=O)O[C@H](C)C(=O)N(C)[C@@H](CC(C)C)C(=O)O[C@H](Cc2ccc(Cn3cc(OCC4CC4)cn3)cc2)C(=O)N(C)[C@@H](CC(C)C)C(=O)O[C@H](C)C(=O)N1C` [Example 1b-146, (3S,6R,9S,12R,15S,18R,21S,24R)-6,18-bis(4-((4-(cyclopropylmethoxy)-1H-pyrazol-1-yl)methyl)benzyl)-3,9,15,21-tetraisobutyl-4,10,12,16,22,24-hexamethyl-1,7,13,19-tetraoxa-4,10,16,22-tetraazacyclotetracosan-2,5,8,11,14,17,20,23-octaone], in experiment [1], the minimal effective concentration lay in the range of 0.001 to 0.01 µM.
Regarding `CC(C)C[C@H]1C(=O)O[C@H](Cc2ccc(Cn3nccc3-c3ccc(Cl)cc3)cc2)C(=O)N(C)[C@@H](CC(C)C)C(=O)O[C@H](C)C(=O)N(C)[C@@H](CC(C)C)C(=O)O[C@H](Cc2ccc(Cn3nccc3-c3ccc(Cl)cc3)cc2)C(=O)N(C)[C@@H](CC(C)C)C(=O)O[C@H](C)C(=O)N1C` [Example 1b-153, (3S,6R,9S,12R,15S,18R,21S,24R)-6,18-bis(4-((5-(4-chlorophenyl)-1H-pyrazol-1-yl)methyl)benzyl)-3,9,15,21-tetraisobutyl-4,10,12,16,22,24-hexamethyl-1,7,13,19-tetraoxa-4,10,16,22-tetraazacyclotetracosan-2,5,8,11,14,17,20,23-octaone], the minimal effective concentration in experiment [1] lay within 0.001 to 0.01 µM.
Still for that read-out and setting: to `CCOc1cc(-c2ccccc2)nn1Cc1ccc(C[C@H]2OC(=O)[C@H](CC(C)C)N(C)C(=O)[C@@H](C)OC(=O)[C@H](CC(C)C)N(C)C(=O)[C@@H](Cc3ccc(Cn4nc(-c5ccccc5)cc4OCC)cc3)OC(=O)[C@H](CC(C)C)N(C)C(=O)[C@@H](C)OC(=O)[C@H](CC(C)C)N(C)C2=O)cc1` [Example 1b-178, (3S,6R,9S,12R,15S,18R,21S,24R)-6,18-bis(4-((5-ethoxy-3-phenyl-1H-pyrazol-1-yl)methyl)benzyl)-3,9,15,21-tetraisobutyl-4,10,12,16,22,24-hexamethyl-1,7,13,19-tetraoxa-4,10,16,22-tetraazacyclotetracosan-2,5,8,11,14,17,20,23-octaone] belongs 0.001 to 0.01 µM; to `CC(C)C[C@H]1C(=O)O[C@H](Cc2ccc(C(C)(C)n3cc(C4CC4)cn3)cc2)C(=O)N(C)[C@@H](CC(C)C)C(=O)O[C@H](C)C(=O)N(C)[C@@H](CC(C)C)C(=O)O[C@H](Cc2ccc(C(C)(C)n3cc(C4CC4)cn3)cc2)C(=O)N(C)[C@@H](CC(C)C)C(=O)O[C@H](C)C(=O)N1C` [Example 1c-8, (3S,6R,9S,12R,15S,18R,21S,24R)-6,18-bis(4-(2-(4-cyclopropyl-1H-pyrazol-1-yl)propan-2-yl)benzyl)-3,9,15,21-tetraisobutyl-4,10,12,16,22,24-hexamethyl-1,7,13,19-tetraoxa-4,10,16,22-tetraazacyclotetracosan-2,5,8,11,14,17,20,23-octaone], at most 0.0001 µM.
Still for that read-out and setting: the figure for `COc1cc(C)n(Cc2ccc(C[C@H]3OC(=O)[C@H](CC(C)C)N(C)C(=O)[C@@H](C)OC(=O)[C@H](CC(C)C)N(C)C(=O)[C@@H](Cc4ccc(Cn5nc(OC)cc5C)cc4)OC(=O)[C@H](CC(C)C)N(C)C(=O)[C@@H](C)OC(=O)[C@H](CC(C)C)N(C)C3=O)cc2)n1` [Example 1b-168, (3S,6R,9S,12R,15S,18R,21S,24R)-3,9,15,21-tetraisobutyl-6,18-bis(4-((3-methoxy-5-methyl-1H-pyrazol-1-yl)methyl)benzyl)-4,10,12,16,22,24-hexamethyl-1,7,13,19-tetraoxa-4,10,16,22-tetraazacyclotetracosan-2,5,8,11,14,17,20,23-octaone] is 0.001 to 0.01 µM.
For `Cc1cnn(Cc2ccc(C[C@H]3OC(=O)[C@H](CC(C)C)N(C)C(=O)[C@@H](C)OC(=O)[C@H](CC(C)C)N(C)C(=O)[C@@H](Cc4ccc(Cn5cc(C)cn5)cc4)OC(=O)[C@H](CC(C)C)N(C)C(=O)[C@@H](C)OC(=O)[C@H](CC(C)C)N(C)C3=O)cc2)c1` [Example 1b-24, (3S,6R,9S,12R,15S,18R,21S,24R)-3,9,15,21-tetraisobutyl-4,6,10,16,18,22-hexamethyl-12,24-bis[[4-[(4-methylpyrazol-1-yl)methyl]phenyl]methyl]-1,7,13,19-tetraoxa-4,10,16,22-tetrazacyclotetracosane-2,5,8,11,14,17,20,23-octaone], the minimal effective concentration lay in the range of 1 to 10 µM in experiment [2] and 0.001 to 0.01 µM in experiment [3].
As for `Cc1nn(Cc2ccc(C[C@H]3OC(=O)[C@H](CC(C)C)N(C)C(=O)[C@@H](C)OC(=O)[C@H](CC(C)C)N(C)C(=O)[C@@H](Cc4ccc(Cn5nc(C)c(F)c5C)cc4)OC(=O)[C@H](CC(C)C)N(C)C(=O)[C@@H](C)OC(=O)[C@H](CC(C)C)N(C)C3=O)cc2)c(C)c1F` [Example 1b-110, (3S,6R,9S,12R,15S,18R,21S,24R)-6,18-bis(4-((4-fluoro-3,5-dimethyl-1H-pyrazol-1-yl)methyl)benzyl)-3,9,15,21-tetraisobutyl-4,10,12,16,22,24-hexamethyl-1,7,13,19-tetraoxa-4,10,16,22-tetraazacyclotetracosan-2,5,8,11,14,17,20,23-octaone], the minimal effective concentration in experiment [2] lay in the range of 1 to 10 µM; in experiment [3] it was 0.01 to 0.1 µM.
For `CC(C)C[C@H]1C(=O)O[C@H](Cc2ccc(Cn3ccnc3CO)cc2)C(=O)N(C)[C@@H](CC(C)C)C(=O)O[C@H](C)C(=O)N(C)[C@@H](CC(C)C)C(=O)O[C@H](Cc2ccccc2)C(=O)N(C)[C@@H](CC(C)C)C(=O)O[C@H](C)C(=O)N1C` [Example 8-13, (3S,6R,9S,12R,15S,18R,21S,24R)-6-benzyl-18-(4-((2-(hydroxymethyl)-1H-imidazol-1-yl)methyl)benzyl)-3,9,15,21-tetraisobutyl-4,10,12,16,22,24-hexamethyl-1,7,13,19-tetraoxa-4,10,16,22-tetraazacyclotetracosan-2,5,8,11,14,17,20,23-octaone], in that order: 1 to 10 µM and 0.001 to 0.01 µM.
For `CC(C)C[C@H]1C(=O)O[C@H](Cc2ccc(Cn3ccccc3=O)cc2)C(=O)N(C)[C@@H](CC(C)C)C(=O)O[C@H](C)C(=O)N(C)[C@@H](CC(C)C)C(=O)O[C@H](Cc2ccccc2)C(=O)N(C)[C@@H](CC(C)C)C(=O)O[C@H](C)C(=O)N1C` [Example 10-17, (3S,6R,9S,12R,15S,18R,21S,24R)-6-benzyl-3,9,15,21-tetraisobutyl-4,10,12,16,22,24-hexamethyl-18-(4-((2-oxopyridin-1 (2H)-yl)methyl)benzyl)-1,7,13,19-tetraoxa-4,10,16,22-tetraazacyclotetracosan-2,5,8,11,14,17,20,23-octaone], in that order: 1 to 10 µM and 0.001 to 0.01 µM.
For `Cc1cc(C)n(Cc2ccc(C[C@H]3OC(=O)[C@H](CC(C)C)N(C)C(=O)[C@@H](C)OC(=O)[C@H](CC(C)C)N(C)C(=O)[C@@H](Cc4ccccc4)OC(=O)[C@H](CC(C)C)N(C)C(=O)[C@@H](C)OC(=O)[C@H](CC(C)C)N(C)C3=O)cc2)n1` [Example 2-7, (3S,6R,9S,12R,15S,18R,21S,24R)-6-benzyl-18-[[4-[(3,5-dimethylpyrazol-1-yl)methyl]phenyl]methyl]-3,9,15,21-tetraisobutyl-4,10,12,16,22,24-hexamethyl-1,7,13,19-tetraoxa-4,10,16,22-tetrazacyclotetracosane-2,5,8,11,14,17,20,23-octaone], in that order: 1 to 10 µM and 0.001 to 0.01 µM.
For the compound `Cc1cnn(Cc2ccc(C[C@H]3OC(=O)[C@H](CC(C)C)N(C)C(=O)[C@@H](C)OC(=O)[C@H](CC(C)C)N(C)C(=O)[C@@H](Cc4ccccc4)OC(=O)[C@H](CC(C)C)N(C)C(=O)[C@@H](C)OC(=O)[C@H](CC(C)C)N(C)C3=O)cc2)c1` [Example 2-2, (3S,6R,9S,12R,15S,18R,21S,24R)-6-benzyl-3,9,15,21-tetraisobutyl-4,10,12,16,22,24-hexamethyl-18-[[4-[(4-methylpyrazol-1-yl)methyl]phenyl]methyl]-1,7,13,19-tetraoxa-4,10,16,22-tetrazacyclotetracosane-2,5,8,11,14,17,20,23-octaone], the values for the minimal effective concentration in experiment [2] and in experiment [3] were 1 to 10 µM and 0.001 to 0.01 µM, respectively.
With `CC(C)C[C@H]1C(=O)O[C@H](Cc2ccc(Cn3nc(C4CC4)c(N)c3C3CC3)cc2)C(=O)N(C)[C@@H](CC(C)C)C(=O)O[C@H](C)C(=O)N(C)[C@@H](CC(C)C)C(=O)O[C@H](Cc2ccc(Cn3nc(C4CC4)c(N)c3C3CC3)cc2)C(=O)N(C)[C@@H](CC(C)C)C(=O)O[C@H](C)C(=O)N1C` [Example 1b-145, (3S,6R,9S,12R,15S,18R,21S,24R)-6,18-bis(4-((4-amino-3,5-dicyclopropyl-1H-pyrazol-1-yl)methyl)benzyl)-3,9,15,21-tetraisobutyl-4,10,12,16,22,24-hexamethyl-1,7,13,19-tetraoxa-4,10,16,22-tetraazacyclotetracosan-2,5,8,11,14,17,20,23-octaone], the minimal effective concentration in experiment [2] is 1 to 10 µM; in experiment [3] it was 0.001 to 0.01 µM.
